Laboratory results from US10028989B2, “Composition comprising Retinol, a precursor or a reaction product of it and a plant extract from at least one Chamomilla plant for the treatment of cancer” (ALPINIA LAUDANUM INSTITUTE OF PHYTOPHARMACEUTICAL SCIENCES …, priority 2010, dated 2018).
Entries after “also recorded” stand apart in the source; their conditions may differ.

Legend:
[1] = system: H460 human large cell lung cancer cell line; test: Cellular growth of H460 cells, AMT without chamomile, with MR15E14 or with CHARE (Example 12); format: cell-based; conditions: extracts 21 μg/ml, 1% AMT, retinoic acid 1 μg/ml or 1% ethanol, 6 days, FIG. 3A/3B
Experimental: (§1) The following experiments were performed to compare the composition of the present invention with the teaching of WO 03101479 A1: The human large cell lung cancer cell line, H460, was obtained from the American Type Culture Collection. The cells were cultivated in RPMI-1640 medium containing 10% FBS and kept in a humidified incubator at 37° C. and 5% CO2. Cultures used in subsequent experiments were passaged less than 25 times. The H460 cells were seeded at 14375 cells/well (cell concentration of 10,000 cells/ml) in 12 well plates and were left to adhere overnight.
The H460 cells were incubated with the samples and sample pairs for a total of 6 days with one dose and media refreshment. After 6 days, all cells were harvested to be analyzed. The cell number was determined using flow cytometry. Live cells were differentiated from dead cells by adding Propidium iodide (PI). In short, cells were trypsinized, centrifuged and resuspended in 500 μl of media. 2 μl of PI (1 mg/ml) was added to 400 μl of cell suspension. Since the cells number present in 10 μl of the cell suspension was measured, multiple measurements for each well were taken. […] Solvent control was set at 100%.

[2] = system: Pan02 murine pancreatic adenocarcinoma; test: Efficacy study in the syngenic orthotopic Pan02 tumor model (Example 15); format: in vivo, female C57BL/6 mice; conditions: oral, 21 days
Excerpt: The purpose of this study was to obtain information about the efficacy of the oral combination of Chamomile extract (MR31E25C1 and Retinoic acid (RetAcid) in a syngenic orthotropic PAN02 tumor murine model.
Young (approximately 7 weeks) female C57BL/6 mice were purchased from the National Cancer Institute (Frederick, Md.) and maintained in Aurigon Life Science GmbH's animal care facility with ad libitum access to water and mouse chow (Ssniff® R/M-H). The animals were divided into groups of 10 animals.
All animals, except those in the non-inoculated control group, were given an intrapancreatic injection of 2.5×10^5 Pan02 tumor cells each. Pan02 is a murine pancreatic adenocarcinoma cell line syngeneic to the C57BL/6 species. First treatment was given orally 15 days after the inoculation for a total period of 21 days.
Necropsy was performed at the end of the in-life phase or immediately on animals found dead or killed in extremis. The weights of the brain, whole pancreas, pancreatic tumor, spleen, and liver were determined and the number/size of metastases on the surface of the spleen and liver, peritoneal, kidney, ovary, diaphragm metastases, and metastases of the lymph nodes (if applicable) were recorded. Additionally, the size of the pancreatic tumors of the animals was measured.
The groups were as follows:
Group 1: Non-inoculated, untreated control group. […]

[3] = system: H460 human large cell lung cancer cell line; test: Cellular growth of H460 cells, flow cytometry cell count with PI (Example 11); format: cell-based; conditions: retinoic acid 1 μg/ml, extracts 21 μg/ml, 6 days, 2% ethanol, FIG. 2
Experimental: as §1, with “The” for “The following experiments were performed to compare the composition of the present invention with the teaching of WO 03101479 A1: The”
MR15E14, CHARE and Retinoic acid prepared as described in examples 2, 4 and 9 respectively including a solvent control (2% ethanol) were added to the cells. Media were replaced once after 3 days of incubation with fresh media and samples. After 6 days, all cells were harvested to be analyzed. The cell number was determined using flow cytometry. Live cells were differentiated from dead cells by adding Propidium iodide (PI). Live cells would be PI negative since the dye would be excluded from viable cells.
In short, cells were trypsinized, centrifuged and resuspended in 500 μl of media. 2 μl of PI (1 mg/ml) was added to 400 μl of cell suspension. Since the cells number present in 10 μl of the cell suspension was measured, multiple measurements for each well were taken.
Solvent control was set at 100%.

[4] = system: U87 MG human glioblastoma cell line; test: Cellular growth of U87 MG cells, live cell count with Trypan Blue (Example 10); format: cell-based; conditions: MR15E7 30 μg/ml, retinyl acetate 1 μg/ml, 6 days, FIG. 1B
Experimental: The human glioblastoma cell lines A172 and U87 MG were cultivated in culture medium containing 10% FBS and kept in a humidified incubator at 37° C. and 5% CO2. Cultures used in subsequent experiments were passaged less than 25 times. The cells were seeded at 100,000 cells in T25 cm2 culture flasks (cell concentration of 10,000 cells/ml). MR15E7 and Retinyl Acetate prepared according to examples 1 and 8 respectively were added alone as individual or together in combination (A172 FIGS. 1A and U87 FIG. 1B). The solvent control was 2% ethanol.
Media were replaced once after 3 days of incubation with fresh media and samples. After 6 days, all cells were harvested to be analyzed. The cell number was determined using a cell counter (Countess® automated cell counter, Invitrogen).
Live cells were differentiated from dead cells by adding Trypan Blue. Live cells would be Trypan Blue negative since the dye would be excluded from viable cells.
Solvent control was set at 100%. […] The potential growth inhibitory effects of retinyl acetate (1 μg/ml), MR15E7 (30 μg/ml) and the combination of 30 μg/ml of the extract and retinyl acetate (1 μg/ml) were observed on both the A172 (A) and U87 MG (B) cell lines. The solvent control and the final ethanol concentration for every well was 2%.

[5] = system: A172 human glioblastoma cell line; test: Cellular growth of A172 cells, live cell count with Trypan Blue (Example 10); format: cell-based; conditions: retinyl acetate 1 μg/ml, 6 days, FIG. 1A
Experimental: The human glioblastoma cell lines A172 and U87 MG were cultivated in culture medium containing 10% FBS and kept in a humidified incubator at 37° C. and 5% CO2. Cultures used in subsequent experiments were passaged less than 25 times. The cells were seeded at 100,000 cells in T25 cm2 culture flasks (cell concentration of 10,000 cells/ml). MR15E7 and Retinyl Acetate prepared according to examples 1 and 8 respectively were added alone as individual or together in combination (A172 FIGS. 1A and U87 FIG. 1B). The solvent control was 2% ethanol. Media were replaced once after 3 days of incubation with fresh media and samples. After 6 days, all cells were harvested to be analyzed. The cell number was determined using a cell counter (Countess® automated cell counter, Invitrogen). Live cells were differentiated from dead cells by adding Trypan Blue. Live cells would be Trypan Blue negative since the dye would be excluded from viable cells. […] Solvent control was set at 100%. […] The solvent control and the final ethanol concentration for every well was 2%.

SMILES	effect on cellular growth [1]	median tumor volume ([2]; MR31E25C1 484.5 mg/kg 3x daily, retinoic acid 25 mg/kg 2x daily for 2 days, then 10 mg/kg daily, FIG. 5)	cumulative metastases area in various organs ([2]; same doses, vs untreated PAN02 inoculated group, FIG. 6)	effect on cellular growth [3]	effect on cellular growth [4]	effect on cellular growth [5]
CC1=C(/C=C/C(C)=C/C=C/C(C)=C/C(=O)O)C(C)(C)CCC1 [Retinoic acid, all-trans-Retinoic acid]	slight growth retarding effect	even aggravated the situation	only slight reduction of the overall metastasis development	slightly reduced the cellular growth	–	–
CC(=O)OC/C=C(C)/C=C/C=C(C)/C=C/C1=C(C)CCCC1(C)C [retinyl acetate, Retinyl Acetate]	–	–	–	–	did not affect cellular growth; also recorded: do not affect cellular growth	did not affect cellular growth; also recorded: do not affect cellular growth
